From PubChem BioAssay (NCI)
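Five concentrations, 48 hours, 96-well plates. TGI is the concentration that stops growth completely.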

Tests used:
Assay in all cases: DTP human tumour cell line panel, 48 h
KM12 colon = tested on: KM12 colon
OVCAR-5 ovarian = tested on: OVCAR-5 ovarian
SW-620 colon = tested on: SW-620 colon
A549 NSCLC = tested on: A549 NSCLC
EKVX NSCLC = tested on: EKVX NSCLC
HCC-2998 colon = tested on: HCC-2998 colon
SNB-19 CNS = tested on: SNB-19 CNS
UACC-257 melanoma = tested on: UACC-257 melanoma
OVCAR-8 ovarian = tested on: OVCAR-8 ovarian
SF-539 CNS = tested on: SF-539 CNS
IGROV1 ovarian = tested on: IGROV1 ovarian
COLO 205 colon = tested on: COLO 205 colon
SR leukemia = tested on: SR leukemia
UACC-62 melanoma = tested on: UACC-62 melanoma
RXF 393 renal = tested on: RXF 393 renal
MDA-MB-231 breast = tested on: MDA-MB-231 breast
NCI/ADR-RES ovarian = tested on: NCI/ADR-RES ovarian
MDA-N = tested on: MDA-N

Row | SMILES | TGI (KM12 colon) | TGI (OVCAR-5 ovarian) | TGI (SW-620 colon) | TGI (A549 NSCLC) | TGI (EKVX NSCLC) | TGI (HCC-2998 colon) | TGI (SNB-19 CNS) | TGI (UACC-257 melanoma) | TGI (OVCAR-8 ovarian) | TGI (SF-539 CNS) | TGI (IGROV1 ovarian) | TGI (COLO 205 colon) | TGI (SR leukemia) | TGI (UACC-62 melanoma) | TGI (RXF 393 renal) | TGI (MDA-MB-231 breast) | TGI (NCI/ADR-RES ovarian) | TGI (MDA-N)
1 | COc1ccc2c(c1)OC(c1ccccc1O)CC2=O (stereo not given) | > 100 µM | > 100 µM | > 100 µM | > 100 µM | > 100 µM | > 100 µM | > 100 µM | > 100 µM | > 100 µM | > 100 µM |  |  |  |  |  |  |  | 
2 | COC(=O)N/N=C(/Cc1occc(=O)c1O)C(=O)Nc1ccc([N+](=O)[O-])cc1[N+](=O)[O-] | > 100 µM | > 100 µM | > 100 µM | > 100 µM | > 100 µM | > 100 µM | > 100 µM | > 100 µM | > 100 µM | > 100 µM | > 100 µM | > 100 µM | > 100 µM | > 100 µM | > 100 µM |  |  | 
3 | O=C1NC2C(CCO)CC=C[C@H]2c2cc3c(cc21)OCO3 (stereo not given in full) | > 100 µM |  | > 100 µM | > 100 µM | > 100 µM |  | > 100 µM | > 100 µM | > 100 µM | > 100 µM | > 100 µM | > 100 µM | > 100 µM | > 100 µM | > 100 µM |  |  | 
4 | Cn1c(=O)n2n(c1=O)[C@@H](c1ccccc1)[C@H]2c1ccccc1 | > 100 µM | > 100 µM | > 100 µM | > 100 µM | > 100 µM | > 100 µM | > 100 µM | > 100 µM | > 100 µM | > 100 µM | > 100 µM | > 100 µM | > 100 µM | > 100 µM | > 100 µM | > 100 µM | > 100 µM | 
5 | COc1ccc(N=CN(C)C)c(C)c1 |  | > 100 µM |  | > 100 µM | > 100 µM |  | > 100 µM | 9.95 µM | 83.8 µM | 82.1 µM | > 100 µM | 28 µM |  | 42.6 µM | 67.2 µM | 58 µM | > 100 µM | > 100 µM
6 | CCOP(=O)(OCC)C(Nc1ccc(C(=O)O)cc1)c1ccc(C(Nc2ccc(C(=O)O)cc2)P(=O)(OCC)OCC)cc1 (stereo not given) | > 100 µM | > 100 µM | > 100 µM | > 100 µM | > 100 µM | > 100 µM | > 100 µM | > 100 µM | > 100 µM |  | > 100 µM | > 100 µM |  | > 100 µM | > 100 µM | > 100 µM | > 100 µM | 
7 | CC1(O)Oc2ccc3ccccc3c2C=C1C(N)=O (stereo not given) | > 100 µM |  | > 100 µM |  | > 100 µM | > 100 µM | > 100 µM | > 100 µM |  | > 100 µM | > 100 µM | > 100 µM | > 100 µM | > 100 µM | > 100 µM | 93.8 µM |  | 
8 | COC1=CC(=O)C2C(C1=O)C(c1ccc(OC)c(OC)c1)[C@H]2C (stereo not given in full) | > 100 µM | > 100 µM | 40.6 µM | > 100 µM | > 100 µM | > 100 µM | > 100 µM | 41.1 µM | 42.5 µM | > 100 µM | > 100 µM | 36.9 µM |  | > 100 µM | 35.2 µM |  |  | 
9 | C/C(=N/NC(N)=S)C(CN(C)C)C(C1=C(O)c2ccccc2OC1)c1ccccc1 (stereo not given) | > 100 µM | > 100 µM | > 100 µM | > 100 µM | > 100 µM | > 100 µM | > 100 µM | > 100 µM | > 100 µM | > 100 µM | > 100 µM | > 100 µM | > 100 µM | > 100 µM | > 100 µM |  |  | 
10 | O=C(CC(=O)N1N=C(N(c2ccccc2)c2ccccc2)CC1c1ccccc1)Nc1ccccc1 (stereo not given) | > 100 µM | > 100 µM | > 100 µM | > 100 µM | > 100 µM | > 100 µM | > 100 µM | > 100 µM | > 100 µM | > 100 µM | > 100 µM | > 100 µM | > 100 µM | > 100 µM | > 100 µM | > 100 µM | > 100 µM | 
11 | O=C(N/N=C(\c1nc2ccc(Cl)cc2[nH]c1=O)C(O)c1ccccc1Cl)c1ccncc1 (stereo not given) | > 100 µM | > 100 µM | > 100 µM | > 100 µM | > 100 µM | > 100 µM | > 100 µM | > 100 µM |  | > 100 µM | > 100 µM | > 100 µM |  | > 100 µM | > 100 µM |  |  | 
12 | CN1N=C2c3ccccc3CC[C@H]2C1c1cccc(O)c1 (stereo not given in full) | > 100 µM | > 100 µM | > 100 µM | > 100 µM | > 100 µM | > 100 µM | > 100 µM | > 100 µM | > 100 µM | > 100 µM | > 100 µM | > 100 µM | > 100 µM | > 100 µM | > 100 µM |  |  | 
13 | CCOC(=O)c1cc2cc(C)cc(C(=O)c3ccc([N+](=O)[O-])cc3)c2[nH]1 | > 100 µM | > 100 µM | > 100 µM | > 100 µM | > 100 µM | > 100 µM | > 100 µM | > 100 µM |  | > 100 µM | > 100 µM | > 100 µM |  | > 100 µM | > 100 µM | > 100 µM |  | > 100 µM
14 | Fc1ccc2c3c([nH]c2c1)CCNC3 | > 100 µM | > 100 µM | > 100 µM | > 100 µM | > 100 µM | > 100 µM | > 100 µM | > 100 µM | > 100 µM | > 100 µM | > 100 µM | > 100 µM | > 100 µM | > 100 µM | > 100 µM | > 100 µM | > 100 µM | 
15 | O=C1C=C2CC[C@H]3[C@@H]4CC[C@H](OC(=O)c5cccc6cc7ccccc7nc56)[C@H]4CC[C@@H]3[C@H]2CC1 | > 100 µM | > 100 µM | > 100 µM | > 100 µM | > 100 µM |  | > 100 µM | > 100 µM | > 100 µM | > 100 µM | > 100 µM | > 100 µM |  | > 100 µM |  | > 100 µM | > 100 µM | > 100 µM
16 | CCN(CC)CCCCC1CCN(CC(=O)N2c3cc(Cl)ccc3NC(=O)CC2C)CC1 (stereo not given) |  | > 100 µM | > 100 µM | > 100 µM |  | > 100 µM | > 100 µM | > 100 µM |  |  | > 100 µM | > 100 µM | > 100 µM | > 100 µM |  |  |  | 
17 | Nc1ncnc2c1ncn2C1CC(OC2CCCCO2)C(CO)O1 (stereo not given) | > 100 µM | > 100 µM | > 100 µM | > 100 µM | > 100 µM | > 100 µM | > 100 µM | > 100 µM | > 100 µM | > 100 µM | > 100 µM | > 100 µM | > 100 µM |  | > 100 µM |  |  | 
18 | CCCc1c(C(=O)OCC)[nH]c(C(=O)CCC(=O)c2[nH]c(C(=O)OCC)c(CCC)c2C(=O)OCC)c1C(=O)OCC | > 100 µM | > 100 µM | > 100 µM | > 100 µM | > 100 µM | > 100 µM | > 100 µM | > 100 µM | > 100 µM | > 100 µM | > 100 µM | > 100 µM | > 100 µM | > 100 µM | > 100 µM |  |  | 
19 | Oc1cccc2c1[nH]c1c(C3=C[C@@]4(O)CC/C=C\CCCCN5CC[C@@H]3[C@]3(CC6/C=C\CCCCN6[C@H]34)C5)nccc12 (stereo not given in full) | 2.99 µM | 2.81 µM | 3.44 µM | 4.39 µM | 4.87 µM | 1.87 µM | 14.6 µM | 5.79 µM | 2.88 µM | 3.74 µM | 3.18 µM | 3.71 µM |  | 3.26 µM |  | 2.81 µM | 6.31 µM | 2 µM
20 | NC(=O)OCc1c(-c2ccccc2)nn(-c2ccccc2)c1COC(N)=O | > 100 µM | > 100 µM | > 100 µM | > 100 µM |  | > 100 µM | > 100 µM | > 100 µM | > 100 µM | > 100 µM |  | > 100 µM |  | > 100 µM | > 100 µM | > 100 µM | > 100 µM | > 100 µM
21 | COCN1C(=O)[C@@H]2CCCN2C(=O)c2ccc([N+](=O)[O-])cc21 | > 100 µM | > 100 µM | > 100 µM | > 100 µM | > 100 µM | > 100 µM | > 100 µM | > 100 µM | > 100 µM | > 100 µM | > 100 µM | > 100 µM | > 100 µM | > 100 µM | > 100 µM | > 100 µM | > 100 µM | 
22 | CCOC(=O)Nn1c(C)cc(C(=O)OC)c1C | > 100 µM | > 100 µM | > 100 µM | > 100 µM | > 100 µM | > 100 µM | > 100 µM | > 100 µM | > 100 µM | > 100 µM | > 100 µM | > 100 µM |  | > 100 µM | > 100 µM |  |  | 
23 | COC(=O)C1(C(=O)OC)CC2=C(S(=O)(=O)c3ccccc3)C[C@H](C#N)[C@H]2C1 | > 100 µM | > 100 µM | > 100 µM | > 100 µM | > 100 µM |  | > 100 µM | > 100 µM | > 100 µM | > 100 µM | > 100 µM | > 100 µM |  | > 100 µM | > 100 µM | > 100 µM | > 100 µM | > 100 µM
